In patent US4434172A, “2-Substituted-phenyl-5-alkylthiazolidine-4-one” (priority 1980, dated 1984):

What was measured:
[1] = Acute toxicity test, oral; set-up: species or system Female ICR-mice; conditions: mouse, in vivo, mortality observed for a week, Litchfield-Wilcoxon
Description: Female ICR-mice of body weight of 20 to 24 g, 5 weeks after birth were used.
Eight animal per group were kept in a transparent polycage at room temperature of 23°±1° C., and RH of 60 to 70%.
After minutely pulverizing each one of the present compounds, the pulverized compound was suspended in an aqueous 5% sodium carboxymethylcellulose solution containing 20% of Tween-80. The aqueous suspension was forcibly orally administered by a metal stomach tube, the dose rate having been adjusted by changing the concentration of the present compound in the aqueous suspension.

[2] = system: peptic ulcer due to pyloric ligation; assay: Effect on peptic ulcer due to pyloric ligation; assay type: in vivo, male rats; conditions: 100 mg/kg, intraperitoneal; for Ulcer coefficient: 15 hours after pyloric ligation, control 41.1; for Rate of suppression of ulcer: versus control
Description: (1) Effect on peptic ulcer due to pyloric ligation
Six groups (10 animals per group) of male rats weighting 180 to 200 g were subjected to ligation of their pylori under ether-anesthesia after fasting for 48 hours according to the method of Shay et al. (refer to Gastroenterology, 5, page 43 (1945)).
Just after subjecting to ligation, each of the present compound suspended in an aqueous physiological saline solution was intraperitoneally administered to each rat, the control being poured to with an aqueous physiological saline solution. Then, after 15 hours of fasting without taking water, the rats were sacrificed with ether and their stomachs were removed to examine under a microscope for anatomy. The length and width of the thus-formed ulcer in the stomach were determined and expressed by the product (mm^2), and the total sum of the products was represented as the ulcer coefficient.

[3] = system: peptic ulcer due to acetic acid; assay: Effect on peptic ulcer due to acetic acid (duodenal); assay type: in vivo, male rats; conditions: for coefficient (ulcer coefficient) / Rate of suppression of ulcer: 100 mg/kg, oral; for coefficient (ulcer coefficient): 3 times a day for 10 days from third day of operation, control 8.0; for Rate of suppression of ulcer: 3 times a day for 10 days, versus control
Description: The inventors of the present invention, taking into account of these situations, added to the above-mentioned method of evaluation the effect of accelerating the cure of the peptic ulcer by orally administering the present compound and a commercialized anti-peptic ulcer medicine, respectivey to rats to which duodenal peptic ulcer due to acetic acid (refer to Okabe, 1971) considered to be most closely resembling to human peptic ulcer has been artificially formed.
(2) Effect on peptic ulcer due to acetic acid
Following the method of Okabe et al (refer to Amer. J. Dig. Dis., 16, […], 6 groups (15 animals per group) of male rats weighing 240 to 260 g were subjected to laparotomy under ether anesthesia in which a metal circular frame was placed on the serosa at a distance of 5 to 7 mm from the duodenal pylorus, 0.06 ml of glacial acetic acid was poured into the frame. After 30 seconds, the liquid containing the acetic acid was removed and then the frame was removed. The test compound suspended in an aqueous physiological saline solution was orally administered to the rat 3 times a day from the third day of the operation for consecutive 10 days. After the administration was over, the rats were sacrificed with ether, and their duodenum was removed to observe under a microscope for anatomy. The length and width of the thus-formed ulcer were measured and their product (expressed with mm^2) was recorded as the ulcer coefficient.

peptic ulcer = conditions: cited from earlier work

COc1cc(C2NC(=O)C(C)S2)cc(OC)c1OC (stereo not shown) [Compound 1, 2-(3,4,5-trimethoxyphenyl)-5-methylthiazolidine-4-one]
LD50 at 168 h [1]: 6400 mg/kg | Ulcer coefficient [2]: 7.2 mm^2 | Rate of suppression of ulcer [2]: 82.5% | coefficient (ulcer coefficient) [3]: 2.8 mm^2 | Rate of suppression of ulcer [3]: 77.5%

COc1ccc(C2NC(=O)C(C)S2)cc1OC (stereo not shown) [Compound 2, 2-(3,4-dimethoxyphenyl)-5-methylthiazolidine-4-one]
LD50 at 168 h [1]: > 8000 mg/kg | Ulcer coefficient [2]: 6.5 mm^2 | Rate of suppression of ulcer [2]: 84.2% | coefficient (ulcer coefficient) [3]: 2.4 mm^2 | Rate of suppression of ulcer [3]: 70.0%

COc1ccccc1C1NC(=O)C(C)S1 (stereo not shown) [Compound 3, 2-(2-methoxyphenyl)-5-methylthiazolidine-4-one]
LD50 at 168 h [1]: > 8000 mg/kg | Ulcer coefficient [2]: 3.6 mm^2 | Rate of suppression of ulcer [2]: 91.2% | coefficient (ulcer coefficient) [3]: 1.3 mm^2 | Rate of suppression of ulcer [3]: 83.8%

COc1ccc(C2NC(=O)C(C)S2)cc1 (stereo not shown) [Compound 4, 2-(4-methoxyphenyl)-5-methylthiazolidine-4-one]
LD50 at 168 h [1]: > 8000 mg/kg | Ulcer coefficient [2]: 4.1 mm^2 | Rate of suppression of ulcer [2]: 90.0% | coefficient (ulcer coefficient) [3]: 1.5 mm^2 | Rate of suppression of ulcer [3]: 81.3%

CC1(C)[C@@H](OC(=O)CCC(=O)O)CC[C@]2(C)[C@H]3C(=O)C=C4[C@@H]5C[C@@](C)(C(=O)O)CC[C@]5(C)CC[C@@]4(C)[C@]3(C)CC[C@@H]12 [carbenoxolone]
effect on ulcer-curing (peptic ulcer; commercialized medicine): excellent accelerating effect on the ulcer-curing | side effects (peptic ulcer; in vivo): aldosterone-like side effects to cause hypertension and weakening of muscular function

CC(C)=CCCC(C)=CCCC(C)=CCCC(=O)OCC=C(C)CCC=C(C)C [gefarnate, 3,7dimethyl-2,6-octadienyl 5,9,13trimethyl-4,8,12-tetradecatrienoate, reference compound]
Ulcer coefficient [2]: 36.1 mm^2 | Rate of suppression of ulcer [2]: about 12% | Rate of suppression of ulcer ([2]; listed as Positive control): 12.2% | coefficient (ulcer coefficient) [3]: 6.4 mm^2 | Rate of suppression of ulcer [3]: 20.0% | curative effect / effectiveness (in words) ([3]; acetic acid ulcer): only a slight effectiveness
